Here are results for 26 compounds from patent US20250049812A1, “Compounds that Inhibit Necroptosis and Their Preparation Methods” (SHANGHAI INSTITUTE OF ORGANIC CHEMISTRY, CHINESE ACADEMY OF …, priority 2021, published 2025).

What is called IC50 is the concentration needed to halve the response being measured.

The first assay deals with Jurkat FADD (−/−) Cells. The experiment in a line: TNF-α induced necroptosis of Jurkat FADD-deficient cells (CellTiter-Glo cell survival). To be noted: Homo sapiens, Jurkat, 13 h. It counts as cell-based, human. Put shortly:
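Cells in RPMI 1640 with 10% FBS were pretreated for 1 h at 37 °C with compound (12-point threefold series from 25 μM, or 0.5 μM, in triplicate). They were then stimulated with TNFα added as a 5 ng/mL solution for 13 h. Survival was read by luminescence.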
A general note: In ATP-based viability assays light output follows the ATP content of the culture.
On to `CN1C(=O)[C@@H](NC(=O)c2nnc(Cc3ccccc3)[nH]2)Cn2cc(C(=O)C(F)(F)F)c3cccc1c32` [T-93, (S)-5-benzyl-N-(1-methyl-2-oxo-7-(2,2,2-trifluoroacetyl)-1,2,3,4-tetrahydro-[1,4]diazepine [3,2,1-hi]indol-3-yl)-4H-1,2,4-triazole-3-carboxamide], for which the IC50 was 100 to 1000 nM.

The same assay, now with this note: Homo sapiens; TNF-α induced necroptosis, Jurkat FADD-deficient cells, 13 hours, CellTiter-Glo; read-out: IC50.
Consider `CN1C(=O)C(NC(=O)c2nnc(Cc3ccccc3)[nH]2)Cc2c[nH]c3cc(C#Cc4cnn(C)c4)cc1c23` (racemic) [T-45, (±)-5-benzyl-N-(1-methyl-8-((1-methyl-1H-pyrazol-4-yl)ethynyl)-2-oxo-2,3,4,6-tetrahydro-1H-aza [4,3,2-cd]indol-3-yl)-4H-1,2,4-triazole-3-carboxamide], for which the concentration for half-maximal inhibition (IC50) was < 10 nM.
Regarding `CN1C(=O)C(NC(=O)c2nnc(Cc3ccccc3)[nH]2)Cc2c[nH]c3ccnc1c23` (racemic) [T-129, (±)-5-benzyl-N-(6-methyl-7-oxo-6,7,8,9-tetrahydro-2H-2,5,6-triazabenzene[cd]azulene-8-yl)-4H-1,2,4-triazol-3-carboxamide], the IC50 fell in the range of 100 to 1000 nM.
On the same count and under the same terms, to `CN1C(=O)C(NC(=O)c2nnc(Cc3ccccc3)[nH]2)Cc2cn(CC#N)c3cccc1c23` (racemic) [T-25, (±)-5-benzyl-N-(6-(cyanomethyl)-1-methyl-2-oxo-2,3,4,6-tetrahydro-1H-azacyclo [4,3,2-cd]indol-3-yl)-4H-1,2,4-triazole-3-carboxamide] belongs < 10 nM.
The same measure, in the same setting: to `CN1C(=O)C(NC(=O)c2nnc(Cc3ccccc3)[nH]2)Cc2cn(Cc3cnn(C)c3)c3cccc1c23` (racemic) [T-35, (±)-5-benzyl-N-(1-methyl-6-((1-methyl-1H-pyrazol-4-yl)methyl)-2-oxo-2,3,4,6-tetrahydro-1H-azacyclo [4,3,2-cd]indol-3-yl)-4H-1,2,4-triazole-3-carboxamide] belongs < 10 nM; to `CN1C(=O)C(NC(=O)c2nnc(Cc3ccccc3)[nH]2)Cc2cn(CCF)c3cccc1c23` (racemic) [T-26, (±)-5-benzyl-N-(6-(2-fluoroethyl)-1-methyl-2-oxo-2,3,4,6-tetrahydro-1H-azacyclo [4,3,2-cd]indol-3-yl)-4H-1,2,4-triazole-3-carboxamide], 10 to 100 nM; to `CN1C(=O)[C@@H](NC(=O)c2nnc(Cc3ccccc3)[nH]2)Cn2cc(-c3cnc(Cl)n3C)c3cccc1c32` [T-126, (S)-5-benzyl-N-(7-(2-chloro-1-methyl-1H-imidazol-5-yl)-1-methyl-2-oxo-1,2,3,4-tetrahydro-1,4-diazepine [3,2,1-hi]indol-3-yl)-4H-1,2,4-triazole-3-carboxamide], 10 to 100 nM.
Take `CN1C(=O)C(NC(=O)c2nnc(Cc3ccccc3)[nH]2)Cc2cn(-c3ccccn3)c3cccc1c23` (racemic) [T-69, (±)-5-benzyl-N-(1-methyl-2-oxo-6-(pyridin-2-yl)-2,3,4,6-tetrahydro-1H-azacyclo [4,3,2-cd]indol-3-yl)-4H-1,2,4-triazole-3-carboxamide]: the IC50 is 10 to 100 nM.
On the same count and under the same terms, to `CC(C)c1cccnc1-n1cc2c3c(cccc31)N(C)C(=O)C(NC(=O)c1nnc(Cc3ccccc3)[nH]1)C2` (racemic) [T-65, (±)-5-benzyl-N-(6-(3-isopropylpyridin-2-yl)-1-methyl-2-oxo-2,3,4,6-tetrahydro-1H-azacyclo [4,3,2-cd]indol-3-yl)-4H-1,2,4-triazole-3-carboxamide] belongs 10 to 100 nM; to `Cc1c(-c2cn3c4c(cccc24)N(C)C(=O)[C@@H](NC(=O)c2nnc(Cc4ccccc4)[nH]2)C3)cnn1C` [T-125, (S)-5-benzyl-N-(7-(1,5-dimethyl-1H-pyrazol-4-yl)-1-methyl-2-oxo-1,2,3,4-tetrahydro-1,4-diazepine [3,2,1-hi]indol-3-yl)-4H-1,2,4-triazole-3-carboxamide], < 10 nM.
On the same count and under the same terms, to `CN1C(=O)C(NC(=O)c2nnc(Cc3ccccc3)[nH]2)Cc2cn(-c3ncccc3C(N)=O)c3cccc1c23` (racemic) [T-61, (±)-2-(3-(5-benzyl-4H-1,2,4-triazole-3-carboxamide)-1-methyl-2-oxy-1,2,3,4-tetrahydro-6H-azacyclo [4,3,2-cd]indol-6-yl)nicotinamide] belongs 10 to 100 nM; to `CN1C(=O)C(NC(=O)c2nnc(Cc3ccccc3)[nH]2)Cc2cn(-c3ccn(C)n3)c3cccc1c23` (racemic) [T-37, (±)-5-benzyl-N-(1-methyl-6-(1-methyl-1H-pyrazol-3-yl)-2-oxo-2,3,4,6-tetrahydro-1H-azacyclo [4,3,2-cd]indol-3-yl)-4H-1,2,4-triazole-3-carboxamide], < 10 nM.
On the same count and under the same terms, to `CCOc1cccnc1-n1cc2c3c(cccc31)N(C)C(=O)C(NC(=O)c1nnc(Cc3ccccc3)[nH]1)C2` (racemic) [T-67, (±)-5-benzyl-N-(6-(3-ethoxypyridin-2-yl)-1-methyl-2-oxy-2,3,4,6-tetrahydro-1H-azacyclo [4,3,2-cd]indol-3-yl)-4H-1,2,4-triazole-3-carboxamide] belongs < 10 nM; to `Cc1noc(C)c1-c1cn2c3c(cccc13)N(C)C(=O)C(NC(=O)c1nnc(Cc3ccccc3)[nH]1)C2` (centres unmarked) [T-86, 5-benzyl-N-(7-(3,5-dimethylisoxazol-4-yl)-1-methyl-2-oxo-1,2,3,4-tetrahydro-[1,4]diazepine[3,2,1-hi]indol-3-yl)-4H-1,2,4-triazole-3-carboxamide], < 10 nM.
On to `Cc1nn(C)c(C)c1-c1cn2c3c(cccc13)N(C)C(=O)C(NC(=O)c1nnc(Cc3ccccc3)[nH]1)C2` (racemic) [T-114, (±)-5-benzyl-N-(1-methyl-2-oxo-7-(1,3,5-trimethyl-1H-pyrazol-4-yl)-1,2,3,4-tetrahydro-[1,4]diazepine [3,2,1-hi]indol-3-yl)-4H-1,2,4-triazole-3-carboxamide], for which the 50% inhibitory concentration (IC50) is < 10 nM.
As to `CN1C(=O)C(NC(=O)c2nnc(Cc3ccccc3)[nH]2)Cc2cn(C)c3cccc1c23` (racemic) [T-20, (±)-5-benzyl-N-(1,6-dimethyl-2-oxo-2,3,4,6-tetrahydro-1H-azacyclo [4,3,2-cd]indol-3-yl)-4H-1,2,4-triazole-3-carboxamide], the IC50 lay within 10 to 100 nM.
As to `CN1C(=O)C(NC(=O)c2nnc(Cc3ccccc3)[nH]2)Cc2cn(-c3ncccc3C(=O)OC3CC3)c3cccc1c23` (racemic) [T-66, (±)-2-(3-(5-benzyl-4H-1,2,4-triazole-3-carboxamide)-1-methyl-2-oxo-1,2,3,4-tetrahydro-6H-azacyclo [4,3,2-cd]indol-6-yl)nicotinic Acid Cyclopropane], the 50% inhibitory concentration (IC50) was < 10 nM.
On the same count and under the same terms, to `CN1C(=O)[C@@H](NC(=O)c2ncc(Cc3ccccc3)o2)Cn2cc(-c3cn(C)nc3C(F)(F)F)c3cccc1c32` [T-127, (S)-5-benzyl-N-(1-methyl-7-(1-methyl-3-(trifluoromethyl)-1H-pyrazol-4-yl)-2-oxo-1,2,3,4-tetrahydro-[1,4]diazepine [3,2,1-hi]indol-3-yl)oxazole-2-carboxamide] belongs < 10 nM.
On the same count and under the same terms, the same measure for `CN1C(=O)C(NC(=O)c2nnc(Cc3ccccc3)[nH]2)Cc2cn(-c3ncccc3O)c3cccc1c23` (racemic) [T-47, (±)-5-benzyl-N-(6-(3-hydroxypyridin-2-yl)-1-methyl-2-oxo-2,3,4,6-tetrahydro-1H-azacyclo [4,3,2-cd]indol-3-yl)-4H-1,2,4-triazole-3-carboxamide]: 100 to 1000 nM; for `COc1cccnc1-n1cc2c3c(cccc31)N(C)C(=O)C(NC(=O)c1nnc(Cc3ccccc3)[nH]1)C2` (racemic) [T-41, (±)-5-benzyl-N-(6-(3-methoxypyridin-2-yl)-1-methyl-2-oxo-2,3,4,6-tetrahydro-1H-azacyclo [4,3,2-cd]indol-3-yl)-4H-1,2,4-triazole-3-carboxamide]: < 10 nM; for `CN1C(=O)C(NC(=O)c2nnc(Cc3ccccc3)[nH]2)Cc2cn(-c3ncccc3SC(F)(F)F)c3cccc1c23` (racemic) [T-111, (±)-5-benzyl-N-(1-methyl-2-oxo-6-(3-((trifluoromethyl)thio)pyridin-2-yl)-2,3,4,6-tetrahydro-1H-aza [4,3,2-cd]indol-3-yl)-4H-1,2,4-triazole-3-carboxamide]: < 10 nM.
Still for that read-out and setting: to `CN1C(=O)C(NC(=O)c2nnc(Cc3ccccc3)[nH]2)Cc2cn(-c3cncn3C)c3cccc1c23` (racemic) [T-74, (±)-5-benzyl-N-(1-methyl-6-(1-methyl-1H-imidazol-5-yl)-2-oxo-2,3,4,6-tetrahydro-1H-azacyclo [4,3,2-cd]indol-3-yl)-4H-1,2,4-triazole-3-carboxamide] belongs < 10 nM; to `COC(=O)c1cc(-n2cc3c4c(cccc42)N(C)C(=O)C(NC(=O)c2nnc(Cc4ccccc4)[nH]2)C3)cn1C` (racemic) [T-100, (±)-methyl4-(3-(5-benzyl-4H-1,2,4-triazole-3-carboxamide)-1-methyl-2-oxo-1,2,3,4-tetrahydro-6H-azacyclo [4,3,2-cd]indol-6-yl)-1-methyl-1H-pyrrole-2-carboxylate], 10 to 100 nM; to `CN1C(=O)C(NC(=O)c2nnc(Cc3ccccc3)[nH]2)CN2CCc3cccc1c32` (racemic) [T-14, (±)-5-benzyl-N-(1-methyl-2-oxo-1,2,3,4,6,7-hexahydro-[1,4]diazepino [3,2,1-hi]indol-3-yl)-4H-1,2,4-triazole-3-carboxamide], 10 to 100 nM.
As for `CN1C(=O)C(NC(=O)c2nnc(Cc3ccccc3)[nH]2)Cc2c[nH]c3ccc(F)c1c23` (racemic) [T-131, (±)-5-benzyl-N-(9-fluoro-1-methyl-2-oxo-2,3,4,6-tetrahydroazepincd [4,3,2-cd]indol-3-yl)-4H-1,2,4-triazole-3-carboxamide], the concentration for half-maximal inhibition (IC50) is < 10 nM.
Same read-out and setting: the same measure for `COc1ccccc1-c1cn2c3c(cccc13)N(C)C(=O)C(NC(=O)c1nnc(Cc3ccccc3)[nH]1)C2` (racemic) [T-87, (±)-5-benzyl-N-(7-(2-methoxyphenyl)-1-methyl-2-oxo-1,2,3,4-tetrahydro-[1,4]diazepine [3,2,1-hi]indol-3-yl)-4H-1,2,4-triazole-3-carboxamide]: 10 to 100 nM.
